The source made the active and inactive calls. The rule behind the calls is not given here.
Key:
B16-F10 [1] = assay: (§1) Cytotoxicity against mouse B16F10 cells assessed as reduction in cell viability after 48 hrs by MTT assay; type: functional, cell-based
A549 = assay: (§2) Cytotoxicity against human A549 cells assessed as reduction in cell viability after 48 hrs by MTT assay; type: functional, cell-based
[2] = as §1; type: functional, cell-based; settings: B16-F10, 48 h
[3] = as §2; type: functional, cell-based; settings: A549, 48 h
PANC-1 = assay: Cytotoxicity against human PANC1 cells assessed as reduction in cell viability up to 100 uM after 48 hrs by MTT assay; type: functional, cell-based
[4] = Cytotoxicity against CHO cells assessed as reduction in cell viability up to 100 uM after 48 hrs by MTT assay; type: toxicity, cell-based, Cricetulus griseus; settings: chinese hamster
[5] = Cell cycle arrest in mouse B16F10 cells assessed as accumulation in sub G0/G1 phase at 50 uM after 24 hrs by propidium iodide staining based FACS analysis; type: functional; settings: B16-F10
[6] = Cell cycle arrest in mouse B16F10 cells assessed as decrease in G0/G1 phase at 50 uM after 24 hrs by propidium iodide staining based FACS analysis; type: functional; settings: B16-F10
B16-F10 [7] = assay: Induction of apoptosis in mouse B16F10 cells assessed as DNA damage at 50 uM after 24 hrs by propidium iodide/Hoechst staining based FACS analysis; type: functional, cell-based
[8] = Cytotoxicity against CHO cells assessed as reduction in cell viability up to 10 uM after 48 hrs by MTT assay; type: toxicity, cell-based, Cricetulus griseus; settings: chinese hamster
[9] = Cytotoxicity against CHO cells assessed as reduction in cell viability at 50 to 100 uM after 48 hrs by MTT assay; type: toxicity, cell-based, Cricetulus griseus; settings: chinese hamster
B16-F10 [10] = assay: Induction of intracellular hydrogen peroxide accumulation in mouse B16F10 cells at 50 uM after 24 hrs by DCF-DA staining based fluorescence microscopic analysis; type: functional, cell-based
B16-F10 [11] = assay: Induction of intracellular superoxide radical accumulation in mouse B16F10 cells at 50 uM by dihydroethidium staining based fluorescence microscopic analysis; type: functional, cell-based
[12] = Cell cycle arrest in mouse B16F10 cells assessed as accumulation in G2/M phase at 50 uM after 24 hrs by propidium iodide staining based FACS analysis; type: functional; settings: B16-F10
[13] = Cytotoxicity against mouse B16F10 cells assessed as inhibition of cell viability at 4 uM after 48 hrs by MTT assay relative to control; type: functional; settings: B16-F10, 48 h
[14] = Cytotoxicity against human A549 cells assessed as inhibition of cell viability at 4 uM after 48 hrs by MTT assay relative to control; type: functional; settings: A549, 48 h

O=C(CN1CCOCC1)Nc1ccc(/N=C2\SCC(=O)N2Cc2ccco2)cc1
Activity (B16-F10 [1]): Active
Activity (A549): Active

CCN(CC)CC(=O)Nc1ccc(/N=C2\SCC(=O)N2Cc2ccco2)cc1
Activity (B16-F10 [1]): Active
Activity (A549): Active

CCNCC(=O)Nc1ccc(/N=C2\SCC(=O)N2Cc2cccs2)cc1
IC50 [2]: 11.6 µM
IC50 [3]: 12.6 µM
Activity (PANC-1): Active

O=C(CN1CCN(c2ccccn2)CC1)Nc1ccc(/N=C2\SCC(=O)N2Cc2cccs2)cc1
Activity (B16-F10 [1]): Active
Activity (A549): Active

O=C(CN1CCSCC1)Nc1ccc(/N=C2\SCC(=O)N2Cc2cccs2)cc1
IC50 [3]: 10 µM

O=C(CN1CCCC1)Nc1ccc(/N=C2\SCC(=O)N2Cc2cccs2)cc1
IC50 [2]: 5.4 µM
Activity [4]: Non-Toxic
Activity [5]: Active
Activity [6]: Active
Activity (B16-F10 [7]): Active

COc1ccccc1N1CCN(CC(=O)Nc2ccc(/N=C3\SCC(=O)N3Cc3ccco3)cc2)CC1
Activity (B16-F10 [1]): Active
Activity (A549): Active

O=C(CN1CCCCC1)Nc1ccc(/N=C2\SCC(=O)N2Cc2ccco2)cc1
Activity (B16-F10 [1]): Active
Activity (A549): Active

O=C(CN1CCCC1)Nc1ccc(/N=C2\SCC(=O)N2Cc2ccco2)cc1
Activity (B16-F10 [1]): Active
Activity (A549): Active

CN(C)CC(=O)Nc1ccc(/N=C2\SCC(=O)N2Cc2cccs2)cc1
Activity (B16-F10 [1]): Active
Activity (A549): Active

CCCNCC(=O)Nc1ccc(/N=C2\SCC(=O)N2Cc2cccs2)cc1
IC50 [2]: 3.4 µM
Activity [8]: Non-Toxic
Activity [9]: Toxic
Activity (B16-F10 [10]): Active
Activity (B16-F10 [11]): Active
Activity [12]: Active
Activity (B16-F10 [7]): Active

N#Cc1ccccc1N1CCN(CC(=O)Nc2ccc(/N=C3\SCC(=O)N3Cc3ccco3)cc2)CC1
Activity (B16-F10 [1]): Active
Activity (A549): Active

O=C(CN1CCN(C(=O)c2ccccc2)CC1)Nc1ccc(/N=C2\SCC(=O)N2Cc2cccs2)cc1
IC50 [3]: 10 µM

CN(C)CC(=O)Nc1ccc(/N=C2\SCC(=O)N2Cc2ccco2)cc1
Activity (B16-F10 [1]): Active
Activity (A549): Active

CCN(CC)CC(=O)Nc1ccc(/N=C2\SCC(=O)N2Cc2cccs2)cc1
IC50 [2]: 7 µM
IC50 [3]: 12.5 µM
Activity [4]: Non-Toxic
Activity [5]: Active
Activity [6]: Active
Activity (B16-F10 [7]): Active

CN1CCN(CC(=O)Nc2ccc(/N=C3\SCC(=O)N3Cc3cccs3)cc2)CC1
Activity (B16-F10 [1]): Active
Activity (A549): Active

O=C(CN1CCSCC1)Nc1ccc(/N=C2\SCC(=O)N2Cc2ccco2)cc1
Activity (B16-F10 [1]): Active
Activity (A549): Active

O=C(CN1CCN(c2ccc(F)cc2)CC1)Nc1ccc(/N=C2\SCC(=O)N2Cc2cccs2)cc1
Activity (B16-F10 [1]): Active
Activity (A549): Active

O=C(CN1CCOCC1)Nc1ccc(/N=C2\SCC(=O)N2Cc2cccs2)cc1
IC50 [3]: 12.6 µM

O=C(CN1CCCCC1)Nc1ccc(/N=C2\SCC(=O)N2Cc2cccs2)cc1
Activity (B16-F10 [1]): Active
Activity (A549): Active

COc1cccc2c1C(=O)c1c(O)c3c(c(O)c1C2=O)C[C@@](O)(C(=O)CO)C[C@@H]3O[C@H]1C[C@H](N)[C@H](O)[C@H](C)O1 [DOXORUBICIN]
inhibition at 4 µM [13]: 40.9%
inhibition at 4 µM [14]: 28%

From ChEMBL document CHEMBL3856232, “Synthesis and biological evaluation of novel 2-imino-4-thiazolidinone derivatives as potent anti-cancer agents” (Bioorg Med Chem Lett, 2016)
